Reference: article PMC7051184, “C9orf72 arginine-rich dipeptide repeat proteins disrupt karyopherin-mediated nuclear import” (eLife, 2020)
Where a SMILES comes first, the peptide text is derived from it.

Assays:
Format in all cases: biochemical, human
[1] = DPR aggregate formation in HEK lysate (pellet vs. supernatant, total protein); details: 100 µM
Method: (§1) Supernatant and pellet fractions (for all 5 DPRs, and control/buffer only) were prepared as in the nuclear transport assays, by adding 100 µM 10mers to 2.5 mg/ml HEK lysate in 100 µL TRB. Supernatants were boiled in Laemmli (BioRad) for 5 min. Pellets were boiled for 15 min followed by sonication in order to fully disperse aggregates for SDS-PAGE. Equal volumes of supernatant and pellet fractions were run on 4–12% Bolt Bis-Tris Plus gels (ThermoFisher), transferred to nitrocellulose membrane using an iBlot2 dry blotting system (ThermoFisher). Protein loading was analyzed by BLOT-Faststain (G-biosciences, St. Louis, MO), according to the manufacterers’ instructions. For immunodetection, membranes were blocked with 5% non-fat milk in TBST and probed by sequential incubation with the primary antibodies as detailed in the table below. Detection was by HRP-conjugated secondary antibodies/chemiluminescence using an ImageQuant LAS 4000 system (GE, Chicago, IL). To permit sequential probing of membranes without stripping, signals were quenched by incubation with prewarmed 30% H20_2 for 20 min ([Sennepin et al., 2009]). Band intensities were measured by ImageQuant software. For pellet vs. supernatant fractions, all were expressed as percent untreated control. […]

Nup133 = test: DPR aggregation assay and western blot, Nup133; details: 100 µM 10mer in 2.5 mg/ml HEK lysate, normalized to untreated HEK
Method: (§2) Supernatant and pellet fractions (for all 5 DPRs, and control/buffer only) were prepared as in the nuclear transport assays, by adding 100 µM 10mers to 2.5 mg/ml HEK lysate in 100 µL TRB. Supernatants were boiled in Laemmli (BioRad) for 5 min. Pellets were boiled for 15 min followed by sonication in order to fully disperse aggregates for SDS-PAGE. Equal volumes of supernatant and pellet fractions were run on 4–12% Bolt Bis-Tris Plus gels (ThermoFisher), transferred to nitrocellulose membrane using an iBlot2 dry blotting system (ThermoFisher). Protein loading was analyzed by BLOT-Faststain (G-biosciences, St. Louis, MO), according to the manufacterers’ instructions. For immunodetection, membranes were blocked with 5% non-fat milk in TBST and probed by sequential incubation with the primary antibodies as detailed in the table below. Detection was by HRP-conjugated secondary antibodies/chemiluminescence using an ImageQuant LAS 4000 system (GE, Chicago, IL). To permit sequential probing of membranes without stripping, signals were quenched by incubation with prewarmed 30% H20_2 for 20 min ([Sennepin et al., 2009]). Band intensities were measured by ImageQuant software. For pellet vs. supernatant fractions, all were expressed as percent untreated control. For blots in Figure 1E, samples were run on 4–20% SDS PAGE minigels (ThermoFisher) and blotted to PVDF membranes (Immun-Blot PVDF, Bio-Rad) using the Bio-Rad TransBlot Turbo apparatus, and probed as above. The chemiluminescence signal was captured with a Bio-Rad ChemiDoc XRS+ digital imaging system.

Ran = test: DPR aggregation assay and western blot, Ran; details: for Ran band density, Pellet / Ran band density, Supernatant: 100 µM 10mer in 2.5 mg/ml HEK lysate, normalized to untreated HEK; for Ran band density, % untr control: Fig 5-suppl 3C, normalized to untreated HEK on same membrane;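 on Ran band density, % untr control: RNA rows contain added 20 µg total HEK RNA while no-RNA rows lack it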
Method: as §2

Rps25 = test: DPR aggregation assay and western blot, Rps25; details: Fig 5-suppl 3C, normalized to untreated HEK on same membrane;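 further: RNA rows contain added 20 µg total HEK RNA while no-RNA rows lack it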
Text: Supplement elife-51685-fig5-data1.xlsx, sheet "Figure 5-figure suppl 3" | column: Rps25

importin β = test: DPR aggregation assay and western blot, ImpB; details: for ImpB band density, Pellet / ImpB band density, Supernatant: 100 µM 10mer in 2.5 mg/ml HEK lysate, normalized to untreated HEK; for ImpB band density, % untr control: Fig 5-suppl 3C, normalized to untreated HEK on same membrane;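 on ImpB band density, % untr control: RNA rows contain added 20 µg total HEK RNA while no-RNA rows lack it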
Method: as §2

DDX3X = test: DPR aggregation assay and western blot, DDX3X; details: normalized to untreated HEK cells on the same membrane
Method: as §2

Matrin-3 = test: DPR aggregation assay and western blot, Matrin-3; details: normalized to untreated HEK cells on the same membrane
Method: as §2

importin α = test: DPR aggregation assay and western blot, ImpA; details: for ImpA band density, Pellet / ImpA band density, Supernatant: 100 µM 10mer in 2.5 mg/ml HEK lysate, normalized to untreated HEK; for ImpA band density, % untr control: Fig 5-suppl 3C, normalized to untreated HEK on same membrane;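 on ImpA band density, % untr control: RNA rows contain added 20 µg total HEK RNA while no-RNA rows lack it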
Method: as §2

transportin-1 (Tnpo1) = test: DPR aggregation assay and western blot, Tnpo1; details: for Tnpo1 band density, Pellet / Tnpo1 band density, Supernatant: 100 µM 10mer in 2.5 mg/ml HEK lysate, normalized to untreated HEK; for TNPO1 band density, % untr control: Fig 5-suppl 3C, normalized to untreated HEK on same membrane
Method: as §2

Nup54 = test: DPR aggregation assay and western blot, Nup54; details: 100 µM 10mer in 2.5 mg/ml HEK lysate; Blot 1; normalized to untreated HEK
Method: as §1

RPS6 = test: DPR aggregation assay and western blot, RPS6; details: for Rps6 band density, % untr control: Fig 5-suppl 3C, normalized to untreated HEK on same membrane; for RPS6 band density, % control: normalized to untreated HEK cells on the same membrane
Method: as §2

Nup98 = test: DPR aggregation assay and western blot, Nup98; details: 100 µM 10mer in 2.5 mg/ml HEK lysate, normalized to untreated HEK
Method: as §2

Nup62 = test: DPR aggregation assay and western blot, Nup62; details: 100 µM 10mer in 2.5 mg/ml HEK lysate, normalized to untreated HEK
Method: as §2

FUS = test: DPR aggregation assay and western blot, FUS; details: normalized to untreated HEK cells on the same membrane
Method: as §2

[2] = Pellet, no RNA (Untreated), blot 1
[3] = Pellet, no RNA (Untreated), blot 2
[4] = Supernatant, no RNA (Untreated), blot 1
[5] = Supernatant, no RNA (Untreated), blot 2

N=C(N)NCCC[C@H](NC(=O)[C@@H]1CCCN1C(=O)[C@H](CCCNC(=N)N)NC(=O)[C@@H]1CCCN1C(=O)[C@H](CCCNC(=N)N)NC(=O)[C@@H]1CCCN1C(=O)[C@H](CCCNC(=N)N)NC(=O)[C@@H]1CCCN1C(=O)[C@H](CCCNC(=N)N)NC(=O)[C@@H]1CCCN1C(=O)[C@H](CCCNC(=N)N)NC(=O)[C@@H]1CCCN1C(=O)[C@H](CCCNC(=N)N)NC(=O)[C@@H]1CCCN1C(=O)[C@H](CCCNC(=N)N)NC(=O)[C@@H]1CCCN1C(=O)[C@H](CCCNC(=N)N)NC(=O)[C@@H]1CCCN1C(=O)[C@H](CCCNC(=N)N)NC(=O)[C@@H]1CCCN1)C(=O)O [PR10] (H-PRPRPRPRPRPRPRPRPRPR-OH; N-terminus and C-terminus assumed)
Depletion of NCT proteins from the supernatant [1]: not substantially depleted from the supernatant
Nup133 band density, Pellet (Nup133; Blot 1): 156.5 % control
Nup133 band density, Supernatant (Nup133; Blot 1): 45.6 % control
Nup133 band density, Pellet (Nup133; Blot 2): 194.3 % control
Nup133 band density, Supernatant (Nup133; Blot 2): 40.2 % control
Ran band density, Pellet (Ran; Blot 1): 101.8 % control
Ran band density, Supernatant (Ran; Blot 1): 104.7 % control
Ran band density, Pellet (Ran; Blot 2): 132.9 % control
Ran band density, Supernatant (Ran; Blot 2): 105.7 % control
Ran band density, % untr control (Ran; Pellet, RNA, blot 1): 201.97%
Ran band density, % untr control (Ran; Pellet, RNA, blot 2): 271.01%
Ran band density, % untr control (Ran; [2]): 172.26%
Ran band density, % untr control (Ran; [3]): 224.02%
Ran band density, % untr control (Ran; Supernatant, RNA, blot 1): 114.46%
Ran band density, % untr control (Ran; Supernatant, RNA, blot 2): 110.30%
Ran band density, % untr control (Ran; [4]): 105.51%
Ran band density, % untr control (Ran; [5]): 113.60%
Rps25 band density, % untr control (Rps25; Pellet, RNA, blot 1): 302.37%
Rps25 band density, % untr control (Rps25; Pellet, RNA, blot 2): 467.96%
Rps25 band density, % untr control (Rps25; [2]): 306.71%
Rps25 band density, % untr control (Rps25; [3]): 525.42%
Rps25 band density, % untr control (Rps25; Supernatant, RNA, blot 1): 12.19%
Rps25 band density, % untr control (Rps25; Supernatant, RNA, blot 2): 16.30%
Rps25 band density, % untr control (Rps25; [4]): 0.89%
Rps25 band density, % untr control (Rps25; [5]): 1.06%
ImpB band density, Pellet (importin β; Blot 1): 818.3 % control
ImpB band density, Supernatant (importin β; Blot 1): 89.3 % control
ImpB band density, Pellet (importin β; Blot 2): 483.8 % control
ImpB band density, Supernatant (importin β; Blot 2): 77.0 % control
ImpB band density, % untr control (importin β; Pellet, RNA, blot 1): 176.94%
ImpB band density, % untr control (importin β; Pellet, RNA, blot 2): 208.79%
ImpB band density, % untr control (importin β; [2]): 231.77%
ImpB band density, % untr control (importin β; [3]): 273.94%
ImpB band density, % untr control (importin β; Supernatant, RNA, blot 1): 95.64%
ImpB band density, % untr control (importin β; Supernatant, RNA, blot 2): 121.54%
ImpB band density, % untr control (importin β; [4]): 76.39%
ImpB band density, % untr control (importin β; [5]): 117.49%
DDX3X band density, % control (DDX3X; Pellet, Blot 1): 156.6 % control
DDX3X band density, % control (DDX3X; Pellet, Blot 2): 221.4 % control
DDX3X band density, % control (DDX3X; Supernatant, Blot 1): 10.9 % control
DDX3X band density, % control (DDX3X; Supernatant, Blot 2): 1.8 % control
Matrin-3 band density, % control (Matrin-3; Pellet, Blot 1): 407.8 % control
Matrin-3 band density, % control (Matrin-3; Pellet, Blot 2): 159.1 % control
Matrin-3 band density, % control (Matrin-3; Supernatant, Blot 1): 25.9 % control
Matrin-3 band density, % control (Matrin-3; Supernatant, Blot 2): 42.9 % control
ImpA band density, Pellet (importin α; Blot 1): 170.0 % control
ImpA band density, Supernatant (importin α; Blot 1): 78.1 % control
ImpA band density, Pellet (importin α; Blot 2): 198.7 % control
ImpA band density, Supernatant (importin α; Blot 2): 90.0 % control
ImpA band density, % untr control (importin α; Pellet, RNA, blot 1): 171.92%
ImpA band density, % untr control (importin α; Pellet, RNA, blot 2): 154.07%
ImpA band density, % untr control (importin α; [2]): 177.99%
ImpA band density, % untr control (importin α; [3]): 181.79%
ImpA band density, % untr control (importin α; Supernatant, RNA, blot 1): 85.78%
ImpA band density, % untr control (importin α; Supernatant, RNA, blot 2): 111.13%
ImpA band density, % untr control (importin α; [4]): 79.74%
ImpA band density, % untr control (importin α; [5]): 105.29%
Tnpo1 band density, Pellet (transportin-1 (Tnpo1); Blot 1): 258.1 % control
Tnpo1 band density, Supernatant (transportin-1 (Tnpo1); Blot 1): 76.9 % control
Tnpo1 band density, Pellet (transportin-1 (Tnpo1); Blot 2): 476.3 % control
Tnpo1 band density, Supernatant (transportin-1 (Tnpo1); Blot 2): 65.0 % control
TNPO1 band density, % untr control (transportin-1 (Tnpo1); Pellet, RNA, blot 1): 162.49%
TNPO1 band density, % untr control (transportin-1 (Tnpo1); Pellet, RNA, blot 2): 169.58%
TNPO1 band density, % untr control (transportin-1 (Tnpo1); [2]): 284.53%
TNPO1 band density, % untr control (transportin-1 (Tnpo1); [3]): 326.13%
TNPO1 band density, % untr control (transportin-1 (Tnpo1); Supernatant, RNA, blot 1): 75.09%
TNPO1 band density, % untr control (transportin-1 (Tnpo1); Supernatant, RNA, blot 2): 93.47%
TNPO1 band density, % untr control (transportin-1 (Tnpo1); [4]): 65.77%
TNPO1 band density, % untr control (transportin-1 (Tnpo1); [5]): 83.87%
Nup54 band density, Pellet (Nup54): 143.4 % control
Nup54 band density, Supernatant (Nup54): 96.8 % control
Rps6 band density, % untr control (RPS6; Pellet, RNA, blot 1): 396.86%
Rps6 band density, % untr control (RPS6; Pellet, RNA, blot 2): 295.15%
Rps6 band density, % untr control (RPS6; [2]): 455.82%
Rps6 band density, % untr control (RPS6; [3]): 297.04%
Rps6 band density, % untr control (RPS6; Supernatant, RNA, blot 1): 8.34%
Rps6 band density, % untr control (RPS6; Supernatant, RNA, blot 2): 9.83%
Rps6 band density, % untr control (RPS6; [4]): 2.35%
Rps6 band density, % untr control (RPS6; [5]): 1.09%
RPS6 band density, % control (RPS6; Pellet, Blot 1): 219.0 % control
RPS6 band density, % control (RPS6; Pellet, Blot 2): 275.0 % control
RPS6 band density, % control (RPS6; Supernatant, Blot 1): 3.7 % control
RPS6 band density, % control (RPS6; Supernatant, Blot 2): 6.4 % control
Nup98 band density, Pellet (Nup98; Blot 1): 109.9 % control
Nup98 band density, Supernatant (Nup98; Blot 1): 57.2 % control
Nup98 band density, Pellet (Nup98; Blot 2): 150.1 % control
Nup98 band density, Supernatant (Nup98; Blot 2): 67.5 % control
Nup62 band density, Pellet (Nup62; Blot 1): 204.0 % control
Nup62 band density, Supernatant (Nup62; Blot 1): 154.3 % control
Nup62 band density, Pellet (Nup62; Blot 2): 227.1 % control
Nup62 band density, Supernatant (Nup62; Blot 2): 111.0 % control
FUS band density, % control (FUS; Pellet, Blot 1): 65.8 % control
FUS band density, % control (FUS; Pellet, Blot 2): 35.2 % control
FUS band density, % control (FUS; Supernatant, Blot 1): 99.5 % control
FUS band density, % control (FUS; Supernatant, Blot 2): 123.2 % control
